Measured values taken from article PMC7720599, “Rhenium N-heterocyclic carbene complexes block growth of aggressive cancers by inhibiting FGFR- and SRC-mediated signalling” (Journal of Experimental & Clinical Cancer Research : CR, 2020).

Test system: zebrafish embryos
Experiment: Zebrafish embryo teratogenicity
Format: in vivo
Conditions: treatment from 2hpf, images at 24hpf
Protocol: Embryos were observed daily at 24 h intervals and toxicity scores (hatching and mortality) were recorded until 120hpf. For heart rate assessments, embryos were anesthetized with tricaine (ethyl 3-aminobenzoate methanesulfonate) at 48hpf and counted under the stereomicroscope for 1min. To assess JVG045 teratogenicity compared to BGJ398, embryos were treated with the compounds starting from 2hpf and results observed at 24hpf. Compounds were prepared in DMSO and diluted to the final concentration in E2 embryo medium. DMSO was used as negative control.

Structure (SMILES): CCN1CCN(c2ccc(Nc3cc(N(C)C(=O)Nc4c(Cl)c(OC)cc(OC)c4Cl)ncn3)cc2)CC1 [BGJ398, 3-(2,6-Dichloro-3,5-dimethoxy-phenyl)-1-{6-[4-(4-ethyl-piperazin-1-yl)-phenylamino]-pyrimidin-4-yl}-1-methyl-urea]
- concentration at which developmental defects start: 500 to 1000 nM
